Patent US5482948A, “Pyridyl derivatives and pharmaceutical compositions comprising these compounds” (Dr. Karl Thomae GmbH, priority 1991, dated 1996)

What was measured:
thromboxane synthetase = target: T1, thromboxane synthetase (Homo sapiens, UniProt P24557); assay: Inhibitory effect on thromboxane synthetase (TXB2 formation in human platelet suspension); type: cell-based; conditions: 10 minutes at ambient temperature, then 14C-labelled arachidonic acid 10 minutes, read-out: Inhibition of thromboxane synthetase IC50
T1 construct: endogenous in cells; host or cells: human platelets (platelet-rich plasma passed through Sepharose 2B)
T1 sequence (P24557 1-533): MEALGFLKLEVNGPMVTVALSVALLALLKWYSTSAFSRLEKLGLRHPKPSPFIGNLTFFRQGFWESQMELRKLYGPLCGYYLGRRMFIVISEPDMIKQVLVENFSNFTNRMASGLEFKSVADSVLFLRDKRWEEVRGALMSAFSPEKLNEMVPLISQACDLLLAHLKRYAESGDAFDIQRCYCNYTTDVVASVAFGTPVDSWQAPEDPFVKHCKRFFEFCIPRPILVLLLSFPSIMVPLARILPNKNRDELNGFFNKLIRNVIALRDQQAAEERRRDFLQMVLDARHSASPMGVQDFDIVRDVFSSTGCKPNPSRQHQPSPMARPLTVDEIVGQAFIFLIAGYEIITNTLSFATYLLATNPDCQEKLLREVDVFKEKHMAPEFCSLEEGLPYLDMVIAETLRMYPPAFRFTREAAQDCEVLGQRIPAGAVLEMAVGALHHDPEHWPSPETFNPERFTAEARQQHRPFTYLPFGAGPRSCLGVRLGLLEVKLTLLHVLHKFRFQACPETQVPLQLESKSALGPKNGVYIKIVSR
Procedure: Determining the Inhibitory Effect on Thromboxane Synthetase
Venous human blood is anti-coagulated with 13 mM Na3 citrate and centrifuged for 10 minutes at 170×g. The supernatant platelet-rich plasma is passed through a Sepharose 2B column in order to remove the plasma proteins. Aliquots of the platelet suspension obtained are incubated with the test substance or with a solvent as control for 10 minutes at ambient temperature and after the addition of ^14 C-labelled arachidonic acid incubation is continued for a further 10 minutes. After this has been stopped with 50 μl of citric acid, extraction is carried out 3 times with 500 μl of ethyl acetate and the combined extracts are distilled off with nitrogen. The residue is taken up in ethyl acetate, placed on TLC film and separated with chloro-form:methanol:glacial acetic acid:water (90:8:1:0.8, v/v/v/v). The dried TLC films are placed on X-ray film for 3 days, the autoradiograms were developed and the active zones were marked on the film using the autoradiograms. After cutting out, the activity is measured in a scintillation counter and the inhibition of the formation of TXB2 is calculated. The IC50 is determined by linear interpolation.

Thromboxane = target: T2, Thromboxane (Homo sapiens, UniProt P21731); assay: Thromboxane-antagonistic activity (displacement of 3H-labelled ligand on human platelets); type: binding; conditions: human platelet suspension, 60 minutes at ambient temperature
T2 construct: endogenous in cells; host or cells: human platelets (platelet-rich plasma passed through Sepharose 2B)
T2 sequence (P21731 1-343): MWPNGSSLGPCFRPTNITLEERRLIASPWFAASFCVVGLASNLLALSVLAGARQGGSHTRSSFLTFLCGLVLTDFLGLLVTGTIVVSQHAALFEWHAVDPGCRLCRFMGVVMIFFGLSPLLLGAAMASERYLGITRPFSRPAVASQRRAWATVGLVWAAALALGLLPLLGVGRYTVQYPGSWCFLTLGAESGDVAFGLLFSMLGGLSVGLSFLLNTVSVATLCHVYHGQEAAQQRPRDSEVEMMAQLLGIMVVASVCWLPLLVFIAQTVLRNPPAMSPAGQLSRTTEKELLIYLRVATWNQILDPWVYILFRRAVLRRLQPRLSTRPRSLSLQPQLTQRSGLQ
Procedure: Thromboxane-antagonistic Activity
Venous human blood is anti-coagulated with 13 mM Na3 citrate and centrifuged for 10 minutes at 170×g. The supernatant platelet-rich plasma is passed through a Sepharose 2B column in order to remove the plasma proteins. Aliquots of the platelet suspension obtained are incubated with the test substance, the ligand (^3 H-labelled) and a marker (^14 C-labelled) for 60 minutes at ambient temperature and then centrifuged for 20 seconds at 10,000×g. The supernatant is removed and the pellet is dissolved in NaOH. The ^3 H activity in the supernatant corresponds to the free ligand, ^14 C gives the concentration of the marker. ^3 H in the pellet corresponds to the bound ligand whilst ^14 C is used to correct for the ligand in the extracellular space. After the process has been repeated, the displacement curve is determined from the binding values for different concentrations of the test substance and the IC50 is determined.

thrombocyte aggregation = assay: Antithrombotic activity: collagen-induced aggregation in platelet-rich plasma (Born and Cross); type: cell-based; conditions: Homo sapiens, 10 min; platelet-rich plasma from healthy volunteers; incubated 10 minutes at 37° C.; 50% change in optical density; read-out: Inhibition of collagen-induced aggregation EC50
Procedure: The thrombocyte aggregation is measured using the method of Born and Cross (J. Physiol. 170, 397 (1964)) in platelet-rich plasma taken from healthy volunteers. To inhibit coagulation, the blood is mixed with 3.14% strength sodium citrate in a ratio by volume of 1:10.
Collagen-induced Aggregation
The pattern of decrease in the optical density of the platelet suspension is photometrically measured and recorded after the addition of the aggregation-triggering substance. The rate of aggregation is concluded from the angle of inclination of the density curve. The point on the curve where there is greatest light transmittance is used to calculate the "optical density".
The quantity of collagen used is as little as possible but sufficient to produce an irreversible reaction curve. Standard commercial collagen produced by Hormonchemie of Munich is used. Before the addition of the collagen the plasma is incubated for 10 minutes with the substance at 37° C.
From the measurements obtained an EC50 is determined by plotting a graph, and indicates a 50% change in the "optical density" in terms of the inhibition of aggregation.

Compound | IC50 (thromboxane synthetase) [nM] | IC50 (Thromboxane) [nM] | EC50 (thrombocyte aggregation) [nM]
CC(C)CNC(=NS(N)(=O)=O)Nc1cccc(/C(=C\CCCC(=O)O)c2cccnc2)c1 [W, 5E-6-(3-(2-amidosulphonyl-3-(2-methylpropyl)guanidino)phenyl)-6-(3-pyridyl)hex-5-enoic acid] | 2700 | 600 | 12000
N#CN=C(Nc1cccc(/C(=C\CCCC(=O)O)c2cccnc2)c1)NC1CCCC1 [C, 5E-6-(3-(2-cyano-3-cyclopentyl-guanidino)phenyl)-6-(3-pyridyl)hex-5-enoicacid] | 3 | 30 | 530
CC(C)(C)CNC(=C[N+](=O)[O-])Nc1cccc(/C(=C\CCCC(=O)O)c2cccnc2)c1 [T, 5E-6-(3-(1-neopentylamino-2-nitro-ethyleneamino)phenyl)-6-(3-pyridyl)hex-5-enoic acid] | 290 | 280 | 9500
